Source: patent publication US20240287071A1, “CLASS OF IMIDAZOLIDINOPYRIMIDONE COMPOUNDS AND USE THEREOF IN TREATMENT OF HSCLPP-MEDIATED DISEASES” (SICHUAN UNIVERSITY, priority 2021, published 2024)
Like-named read-outs stand apart in the source and are kept apart here.

What was measured:
HsClpP [1] = molecular target: T1, HsClpP (Homo sapiens, UniProt Q16740); experiment: HsClpP enzyme hydrolysis of short peptide substrate AC-WLA-AMC; settings: for Regulatory efficacy 1 μM / Regulatory efficacy 10 μM: promoting hydrolysis of short peptide substrate by HsClpP, relative to blank control
[2] = system: rat myocardial cells (H9C2); experiment: In vitro cytotoxicity assay, CCK-8; settings: FIG. 13
Description: (§2) CCK8 and DMSO were products of Sigma. For in vitro experiment, the test compounds were prepared as 10 mM stock solutions in DMSO and stored at −20° C. in the refrigerator in the dark for later use, then diluted to desired concentration with complete culture medium before use. […] The previous culture medium was discarded, fresh culture medium was added to resuspend the cells, and then the cells were counted. According to the growth rate of different cells, the cell seeding concentration was determined, generally being 3000-5000 cells/well. After determining the seeding concentration, the cell suspension was diluted to desired concentrations with fresh culture medium, and then added to a 96-well plate with 100 μL per well, and 200 μL of PBS was added to the edge wells to prevent evaporation of the culture medium. On the second day, drug treatment was performed.

HsClpP [3] = molecular target: T1, HsClpP; experiment: Isothermal Titration calorimetry (ITC); format: binding; settings: FIG. 3
Description: Isothermal Titration calorimetry experiments can measure the binding affinity between small molecules and proteins. Binding affinity is generally measured and reported through the equilibrium dissociation constant (Kd), where the smaller the Kd value, the higher the binding affinity of the ligand for its target. In the experiment, the loading-samples and proteins were placed in a degassing apparatus at 30° C., with a vacuum degree of 400 mmHg or higher, and degassed for 10 minutes. A 50 mL PBS buffer was prepared, and the sample cell and syringe were rinsed. After rinsing, the liquid in the sample cell was completely removed, and the degassed protein and small molecules were taken out. The sample cell was thoroughly washed with protein, and the syringe was rinsed with the small molecule solution 3-5 times. After washing, 250 μL of protein (0.5 mM) was extracted using the syringe, avoiding the formation of bubbles. Subsequently, 200 μL was injected into the sample cell. 50 μL of the small molecule solution (0.1 mM) was extracted using an injector, again avoiding the formation of bubbles. The titration syringe was loaded onto the instrument, and titration commenced after the instrument was balanced.

HCT115 = experiment: CCK-8 in vitro anti-tumor proliferation assay; format: cell-based; settings: Homo sapiens; Table 4; 72 hours
Description: (§1) Example 3: In vitro anti-tumor proliferation assay of the compounds. The purpose of this experiment was to use CCK-8 to detect the in vitro inhibitory activity of the compounds of the present invention against the proliferation of tumor cells. The main reagents, such as RPMI-1640, DMEM high-glucose culture medium, fetal bovine serum, trypsin, etc., were purchased from Gibco BRL. CCK8 and DMSO were products of Sigma. For in vitro experiment, the test compounds were prepared as 10 mM stock solutions in DMSO and stored at −20° C. in the refrigerator in the dark for later use, then diluted to desired concentration with complete culture medium before use. The human lung cancer cells, colon cancer cells, breast cancer cells, glioblastoma cells, human myelomonocytic leukemia cells, and human Burkitt's lymphoma cells used in this experiment were all purchased from the American ATCC company and preserved in laboratory of the inventors. All the above cell lines were cultured in RPMI-1640 complete medium or DMEM complete medium containing 10% fetal bovine serum, 100 U/mL penicillin, and 100 μg/mL streptomycin under 5% carbon dioxide, 37° C. conditions. […] The previous culture medium was discarded, fresh culture medium was added to resuspend the cells, and then the cells were counted. According to the growth rate of different cells, the cell seeding concentration was determined, generally being 3000-5000 cells/well. After determining the seeding concentration, the cell suspension was diluted to desired concentrations with fresh culture medium, and then added to a 96-well plate with 100 μL per well, and 200 μL of PBS was added to the edge wells to prevent evaporation of the culture medium. On the second day, drug treatment was performed. First, the compounds were diluted into a series of gradients with culture medium, and then the drug solution was added to the 96-well plate, with 3 parallel wells for each gradient. Each plate set a blank control group, and ONC201 was used as the positive control group.

HCT116 = experiment: CCK-8 in vitro anti-tumor proliferation assay; format: cell-based; settings: Homo sapiens, HCT-116, 72 hours
Description: as §1

Raji = experiment: CCK-8 in vitro anti-tumor proliferation assay; format: cell-based; settings: Homo sapiens, read-out: IC50(uM) Raji
Description: as §1

SW620 = experiment: CCK-8 in vitro anti-tumor proliferation assay; format: cell-based; settings: Homo sapiens, SW-620, 72 hours
Description: as §1

SW480 = experiment: CCK-8 in vitro anti-tumor proliferation assay; format: cell-based; settings: Homo sapiens, Table 4, 72 hours
Description: as §1

HT29 = experiment: CCK-8 in vitro anti-tumor proliferation assay; format: cell-based; settings: Homo sapiens, HT-29; Table 4; 72 hours
Description: as §1

MV-4-11 = experiment: CCK-8 in vitro anti-tumor proliferation assay; format: cell-based; settings: Homo sapiens, read-out: IC50(uM) MV-4-11
Description: as §1

DLD1 = experiment: CCK-8 in vitro anti-tumor proliferation assay; format: cell-based; settings: Homo sapiens, DLD-1, 72 hours
Description: as §1

A549 = experiment: CCK-8 in vitro anti-tumor proliferation assay; format: cell-based; settings: Homo sapiens, read-out: IC50(uM) A549
Description: as §1

A172 = experiment: CCK-8 in vitro anti-tumor proliferation assay; format: cell-based; settings: Homo sapiens, A 172; Table 3; 72 hours
Description: as §1

[4] = system: human normal embryonic kidney cells (HEK293); experiment: In vitro cytotoxicity assay, CCK-8; settings: up to 50μM; FIG. 13
Description: as §2

HCT116 cells [5] = experiment: Wound-healing cell migration assay; format: cell-based, human; settings: 24 hours; compared to the control group and the ONC201 group; FIG. 12
Excerpt: Example 12: In vitro Antitumor Cell Migration Assay of Preferred Compound. Studies have shown that increased expression of HsClpP is crucial for the proliferation and migration of certain cancer cell lines, while functional disruption of HsClpP in cancer cells can inhibit cell migration.
Wound-Healingcan be used to detect the invasive ability of adherent tumor cells. By observing the healing ability of tumor cells towards scratches under different conditions, the impact of the compound on the ability of tumor cell migration can be reflected.

SDHB and ATF4 = experiment: Levels of SDHB and ATF4 in HCT116 cells; settings: dose-dependently; FIG. 7
HCT116 cells [6] = experiment: Apoptosis, Annexin V/PI staining; settings: 1.25 μM; FIG. 10
[7] = system: HCT116 CRC xenograft tumors; experiment: HCT116 xenograft nude mouse model; settings: 100 mg/kg oral, twice a week, six doses
Description: (A) Observation of tumor size in mice after treatment; (B) Photographs of excised tumor tissue after treatment; (C) Relative change in mouse body weight during treatment; (D) Relative volume change of tumors during treatment. Measurements were taken every other day; N=6 animals per group.

[8] = Table 4, read-out: IC50 ( M) HCT116
[9] = Table 5, HCT116, read-out: IC50
[10] = Table 3, read-out: IC50(uM) SW620
[11] = Table 4, read-out: IC50 ( M) SW620
[12] = Table 3, read-out: IC50(uM) DLD1
[13] = Table 4, read-out: IC50 ( M) DLD1

T1 sequence (Q16740 57-277): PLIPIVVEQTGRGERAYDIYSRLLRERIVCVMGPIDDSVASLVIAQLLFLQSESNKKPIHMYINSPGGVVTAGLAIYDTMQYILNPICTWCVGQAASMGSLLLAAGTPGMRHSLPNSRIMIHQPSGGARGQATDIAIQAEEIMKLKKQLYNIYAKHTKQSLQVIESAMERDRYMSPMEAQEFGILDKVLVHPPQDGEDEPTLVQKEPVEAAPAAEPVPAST

Row | SMILES | Regulatory efficacy 1 μM (HsClpP [1]) | Regulatory efficacy 10 μM (HsClpP [1]) | IC50 (HCT115) [nM] | IC50 (HCT116; [8]) [M] | IC50 (HCT116; [9]) [M] | IC50 (Raji; Table 3, 72 hours) [µM] | IC50 (SW620; [10]) [µM] | IC50 (SW620; [11]) [µM] | IC50 (SW480) [nM] | IC50 (HT29) [nM] | IC50 (MV-4-11; MV4-11, Table 3, 72 hours) [µM] | IC50 (DLD1; [12]) [µM] | IC50 (DLD1; [13]) [µM] | IC50 (A549; A549, Table 3, 72 hours) [µM] | IC50 (A172) [µM] | other results
1 | Cc1ccccc1CN1CCn2c1nc(=O)c1c2CCN(Cc2ccccc2)C1 [Compound 1, 7-benzyl-3-(2-methylbenzyl)-2,3,6,7,8,9-hexahydroimidazo[1,2-a]pyrido[3,4-e]pyrimidin-5(1H)-one] | + + | + + | 1300 | 4e-07 | 4e-07 | 1 | 0.6 | 0.6 | 1100 | 5300 | 0.8 | 0.2 | 0.5 | 2 | 0.5 | EC50 (HsClpP [1]; excitatory activity on HsClpP): 300 nM; inhibitory activity on H9C2 cells [2]: no significant inhibitory activity; ITC thermodynamics of titration with HsClpP (AH, AS) (HsClpP [3]): AH<0, AS<0; Kd, affinity for HsClpP (HsClpP [3]; compared to ONC201): much higher affinity for HsClpP compared to ONC201; cytotoxicity on HEK293 cells [4]: no significant cytotoxicity
2 | O=c1nc2n(c3c1CN(Cc1ccccc1)CC3)CCN2Cc1ccc(C(F)(F)F)cc1 [Compound 18, 7-benzyl-3-(4-trifluoromethylbenzyl)-2,3,6,7,8,9-hexahydroimidazo[1,2-a]pyrido[3,4-e]pyrimidin-5(1H)-one] | + + | + + | – | – | 3e-07 | 0.1 | 0.5 | – | – | – | 0.05 | 0.15 | – | 0.2 | 0.2 | EC50 (HsClpP [1]): 300 nM
3 | O=c1nc2n(c3c1CN(Cc1ccccc1)CC3)CCN2Cc1ccc(F)cc1F [Compound 19, 7-benzyl-3-(2,4-difluorobenzyl)-2,3,6,7,8,9-hexahydroimidazo[1,2-a]pyrido[3,4-e]pyrimidin-5(1H)-one] | + + | + + | 120 | 9e-08 | 1e-07 | 0.1 | 0.15 | 0.09 | 120 | 80 | 0.05 | 0.2 | 0.09 | 0.4 | 0.15 | –
4 | O=c1nc2n(c3c1CN(Cc1ccccc1)CC3)CCN2Cc1ccc(F)c(F)c1 [Compound 20, 7-benzyl-3-(3,4-difluorobenzyl)-2,3,6,7,8,9-hexahydroimidazo[1,2-a]pyrido[3,4-e]pyrimidin-5(1H)-one] | + + | + + | 200 | 1e-07 | 1e-07 | 0.1 | 0.14 | 0.15 | 120 | 50 | 0.025 | 0.5 | 0.15 | 0.5 | 0.1 | –
5 | O=c1nc2n(c3c1CN(Cc1ccccc1)CC3)CCN2Cc1ccc(F)c(Br)c1 [Compound 21, 7-benzyl-3-(3-bromo-4-fluorobenzyl)-2,3,6,7,8,9-hexahydroimidazo[1,2-a]pyrido[3,4-e]pyrimidin-5 (1H)-one] | + + | + + | – | – | – | – | – | – | – | – | – | – | – | – | – | migration ability of HCT116 cells (HCT116 cells [5]): significantly inhibited; ITC thermodynamics of titration with HsClpP (AH, AS) (HsClpP [3]): AH<0, AS<0; ATF4 level (SDHB and ATF4): ATF4 accumulation; SDHB level (SDHB and ATF4): reduction in SDHB level
6 | Cc1ccccc1CN1C(=O)C2=C(CCN(Cc3ccccc3)C2)N2CCN=C12 [ONC201, reference compound] | – | – | – | – | – | – | – | – | – | – | – | – | – | – | – | apoptotic rate (HCT116 cells [6]): < 4.09%; inhibitory activity on H9C2 cells [2]: no significant inhibitory activity; IC50 (Raji; 72 h): 2.5 µM; IC50 (MV-4-11; MV4-11, 72 h): 5 µM; IC50 (A549; A549, 72 h): 10 µM; cytotoxicity on HEK293 cells [4]: no significant cytotoxicity; ATF4 level (SDHB and ATF4): ATF4 accumulation; SDHB level (SDHB and ATF4): reduction in SDHB level
7 | Cc1ccccc1CN1C(=O)C2=C(CCN(Cc3ccccc3)C2)N2CCN=C12 [ONC201·2HCl] | – | – | – | – | – | – | – | – | – | – | – | – | – | – | – | TGI (tumor growth inhibition) [7]: 57%
